Source: PMC10060354, “Discovery of a small molecule ligand of FRS2 that inhibits invasion and tumor growth” (Cellular Oncology, 2022)

Key:
FRS2_PTB = molecular target: T1, FRS2_PTB (Homo sapiens, UniProt Q8WU20); experiment: nano differential scanning fluorimetry (nanoDSF); format: binding; details: 500 μM ligand
T1 construct: FRS2-PTB 11-140aa; 6xHis; made in house; host or cells: E. coli BL21 (DE3)
T1 sequence (Q8WU20 11-140): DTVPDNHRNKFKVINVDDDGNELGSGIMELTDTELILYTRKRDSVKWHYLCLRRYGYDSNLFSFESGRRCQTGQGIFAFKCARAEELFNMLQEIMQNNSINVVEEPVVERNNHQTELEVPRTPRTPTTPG
Procedure: Assay establishment and pilot nanoDSF experiments were performed with a Tycho® system. Each experiment was performed by mixing the protein and ligand of interest at a 1:1 ratio and subsequent incubation for 15–30 min at room temperature. Controls of protein alone and ligand alone in identical buffer compositions as for the complex were measured accordingly. The temperature gradient ranged from 35 to 95 °C, and the heating rate was 30 °C/min. Inflection temperatures TI were calculated from the first derivative of the spectra obtained at the ratio of the signals at 350 nm to those at 330 nm. ΔTI of a complex was calculated as following: ΔTI,complex = TI,complex – TI,protein.
The in-built software version 1.1.5.668 (NanoTemper Technologies, Munich, Germany) and Microsoft Office Excel 365 (Microsoft Corp., Seattle, USA) was used for data analysis. Data was plotted with GraphPad Prism vers. 8.3.0 (GraphPad Software, San Diego, USA).
Purified FRS2_PTB or GB1_FRS2_PTB protein tagged with 6 × Histidine residues and the B1 immunoglobulin binding domain of the streptococcal protein G (GB1) were diluted in the protein buffer (100 mM sodium phosphate, 50 mM NaCl, 0.5 mM EDTA, 50 mM arginine, 1 mM TCEP, pH 7.0) to 30 μM, GB-1 to 40 μM. FGFR_PEP, compounds or paracetamol (PARA) as negative control were dissolved at 1 mM in the protein buffer supplemented with 10% DMSO. Compound and protein were mixed at 1:1 volume ratio yielding a final concentration of 15 μM and 20 μM for FRS2_PTB/GB1_FRS2_PTB and GB1, respectively, as well as 500 μM for FGFR_PEP or compounds. The mixture was incubated for 15 min. Each compound was measured in triplicates. Protein controls were measured in six replicates in the beginning. The quality of the screen was assessed by the Z-factor. nanoDSF validation studies were performed on a Prometheus® system in high sensitivity capillaries. Samples were heated with 1 °C/min from 20 to 95 °C. Each compound was measured in triplicates. GB1-FRS2_PTB and GB1 were diluted in the protein buffer (100 mM sodium phosphate, 50 mM NaCl, 0.5 mM EDTA, 50 mM arginine, 1 mM TCEP, pH 7.0) to 30 μM. Compounds 3.3, 3.4, 3.18 as well as the 3.18 analogues were dissolved in 100% DMSO at 50 or 100 mM and further diluted to 1 mM with a final DMSO-concentration of 100%. FGFR_PEP was dissolved at 1 mM in the protein buffer supplemented with 10% DMSO. Compound and protein were mixed at 1:1 volume ratio yielding final concentrations of 15 μM protein and 500 μM for the compounds. FGFR_PEP was measured against both GB1-FRS2_PTB and GB1, all other compounds only against GB1-FRS2_PTB. The mixture was incubated for 15 min before measurement. The data was analyzed for both the ratio of signals at 330 and 350 nm and at 350 nm alone. […]

GB1-FRS2-PTB = molecular target: T2, GB1-FRS2-PTB (Homo sapiens, UniProt Q8WU20); experiment: NMR STD and WaterLOGSY ligand observation; format: binding; details: 25 µM GB1-FRS2-PTB, 500 µM ligand, 280 K
T2 construct: FRS2-PTB 11-140aa; 6xHis (N); made in house; host or cells: E. coli BL21 (DE3)
T2 sequence (Q8WU20 11-140): T1 sequence (Q8WU20 11-140)
Procedure: STD and WaterLOGSY experiments were measured at 7 °C on a Bruker AvNEO 600 spectrometer equipped with a TCI cryoprobe. In the STD experiments saturation was achieved by applying a series of Gaussian-shaped pulses at a RF field strength of 54 Hz (max.) for 3 s at -0.5 ppm (-40 ppm for the reference experiment) and 512 scans were accumulated. The WaterLOGSY was measured with 256 scans and a mixing time of 1.5 s. A 7.5 ms Gaussian-shaped 180° pulse was used to control the water magnetization. For both experiments samples of 25 µM GB1-FRS2_PTB with a 20-fold excess of ligand (500 µM) were used or with the ligand alone for the control experiment.

[1] = Solubility at the concentration required for the biophysical assays; format: physicochemical; details: 5% DMSO
Caco-2 cells = experiment: CaCo-2 permeability (bi-directional); details: Direction A2B
In short: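 Caco-2 monolayers (passage 40–60) cultured 20 days on Transwells, equilibrated 40 min in HBSS; compound dosed apically (A-B) or basolaterally (B-A) with 1% v/v DMSO and lucifer yellow integrity marker, in duplicate. LC–MS/MS quantification; Papp from permeation rate, C0 and monolayer area; efflux ratio = Papp(B-A)/Papp(A-B).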

GB1-FRS2_PTB:FGFR_PEP = molecular target: T3, GB1-FRS2_PTB:FGFR_PEP (Homo sapiens, UniProt Q8WU20); experiment: nanoDSF competition assay with the FGFR peptide; format: binding; details: PTB domain:FGFR peptide 1:5; 500 μM compound
T3 construct: FRS2-PTB 11-140aa; 6xHis (N); made in house; host or cells: E. coli BL21 (DE3) for the protein
T3 sequence (Q8WU20 11-140): T1 sequence (Q8WU20 11-140)
Procedure: Purified FRS2_PTB or GB1_FRS2_PTB protein tagged with 6 × Histidine residues and the B1 immunoglobulin binding domain of the streptococcal protein G (GB1) were diluted in the protein buffer (100 mM sodium phosphate, 50 mM NaCl, 0.5 mM EDTA, 50 mM arginine, 1 mM TCEP, pH 7.0) to 30 μM, GB-1 to 40 μM. FGFR_PEP, compounds or paracetamol (PARA) as negative control were dissolved at 1 mM in the protein buffer supplemented with 10% DMSO. Compound and protein were mixed at 1:1 volume ratio yielding a final concentration of 15 μM and 20 μM for FRS2_PTB/GB1_FRS2_PTB and GB1, respectively, as well as 500 μM for FGFR_PEP or compounds. The mixture was incubated for 15 min. Each compound was measured in triplicates. Protein controls were measured in six replicates in the beginning. The quality of the screen was assessed by the Z-factor. nanoDSF validation studies were performed on a Prometheus® system in high sensitivity capillaries. Samples were heated with 1 °C/min from 20 to 95 °C. Each compound was measured in triplicates. GB1-FRS2_PTB and GB1 were diluted in the protein buffer (100 mM sodium phosphate, 50 mM NaCl, 0.5 mM EDTA, 50 mM arginine, 1 mM TCEP, pH 7.0) to 30 μM. Compounds 3.3, 3.4, 3.18 as well as the 3.18 analogues were dissolved in 100% DMSO at 50 or 100 mM and further diluted to 1 mM with a final […]. FGFR_PEP was dissolved at 1 mM in the protein buffer supplemented with 10% DMSO. Compound and protein were mixed at 1:1 volume ratio yielding final concentrations of 15 μM protein and 500 μM for the compounds. FGFR_PEP was measured against both GB1-FRS2_PTB and GB1, all other compounds only against GB1-FRS2_PTB. The mixture was incubated for 15 min before measurement. The data was analyzed for both the ratio of signals at 330 and 350 nm and at 350 nm alone. For the competition assays, the PTB domain and the FGFR peptide were mixed at a 1:5 ratio, and ligand competition was assayed in the presence of 500 μM compound.

Row | SMILES | nanoDSF shift of the inflection point of the melting curve (ΔTm) (FRS2_PTB) | binding to the PTB domain by STD and WaterLOGSY (result in words) (GB1-FRS2-PTB) | solubility for biophysical assays (result in words) [1] | Comments: A2B permeation (result in words) (Caco-2 cells) | nanoDSF competition with FGFR peptide (result in words) (GB1-FRS2_PTB:FGFR_PEP)
1 | O=C(O)c1c(Cl)cc(O)c2c1C1C=CCC1C(c1ccc(Cl)cc1)N2 (stereo not shown) [Compound 13] |  | clearly demonstrated binding |  |  | 
2 | O=[N+]([O-])c1c(Cl)cc(O)c2c1C1C=CCC1C(c1ccc(Cl)cc1Cl)N2 (stereo not shown) [Compound 8] |  |  | soluble in 5% DMSO | Test compound not detectable in receiver compartments A2B. | negative shift in compound-mixed samples
3 | N#Cc1c(Cl)cc(O)c2c1C1C=CCC1C(c1ccc(Cl)cc1)N2 (stereo not shown) [Compound 14] |  |  |  | Test compound not detectable in receiver compartments A2B. | 
4 | O=[N+]([O-])c1c(Cl)cc(O)c2c1C1C=CCC1C(c1ccc(Cl)cc1)N2 (stereo not shown) [Compound 7] |  |  | soluble in 5% DMSO |  | negative shift in compound-mixed samples

Continued, in another order:

Row | nanoDSF shift of the inflection point of the melting curve (ΔTm) (FRS2_PTB) | binding to the PTB domain by STD and WaterLOGSY (result in words) (GB1-FRS2-PTB) | SMILES | solubility for biophysical assays (result in words) [1] | Comments: A2B permeation (result in words) (Caco-2 cells) | nanoDSF competition with FGFR peptide (result in words) (GB1-FRS2_PTB:FGFR_PEP)
5 | ~1.5 °C |  | COc1ncc(C(C)NC2CC(C)(C)NC(C)(C)C2)cc1Cl (stereo not shown) [Compound 3.3] |  |  | 
6 | > 2.0 °C | clearly demonstrated binding | CC(C)C[C@@H](CO)NCc1cc(O)c2cc(F)ccc2n1 [Compound 3.14] |  |  | 
